Reference: US20240091267A1, “PRE-TREATMENT OF MSC WITH PPARB/DELTA AGONIST FOR TREATMENT OF ISCHEMIA-REPERFUSION INJURY” (Universite de Montpellier, priority 2020, published 2024)

Legend:
MSC = test: RT-qPCR relative gene expression in untreated or preconditioned MSC; assay type: cell-based, mouse; settings: for hgf transcripts / pdgf transcripts / vegf-α transcripts: then H2O2 4 h, vs untreated MSC/H2O2; for bcl2 gene expression level: then H2O2, vs H2O2-treated MSC
Experimental: FIG. 8: (A) 48 hours after the seeding step in complete medium, MSC were subjected to H2O2-induced oxidative stress during 4 hours in minimal medium with serum deprivation. Pharmacological preconditioning of MSC using PPARβ/δ agonist or antagonist was performed 24 hours before oxidative stress exposure. At the end of the protocol, relative gene expression was analyzed measuring transcript amounts by RT-qPCR. mRNA expression levels in untreated or preconditioned MSC exposed to an oxidative stress were assessed by RT-qPCR for (B) vegf: data (mean±SEM) were compared using ANOVA and the Tukey's post hoc for multiple comparisons (normality test passed). […] P values were ns versus H2O2, n=7 for control n=8, GW0742 0.1 μM n=7, GW0742 1 μM n=9, GSK0660 0.1 μM n=6 and GSK0660 1 μM n=9; and (D) for pdgf: data (mean±SEM) were compared using ANOVA and the Tukey's post hoc for multiple comparisons (normality test passed). […] For statistical analysis comparisons were made to the untreated MSC/H2O2 group.
MSCs were pre-incubated for 24 hours with either PPARβ/δ antagonists GSK3787 (0.1 and 1 μM), PPARβ/δ inverse agonist GSK0660 (0.1 and 1 μM) or PPARβ/δ agonist GW0742 (0.1, 1 and 5 μM) before to be washed with PBS and used in co-cultures experiments or injected in the myocardium. When indicated, MSCs were labeled with the fluorescent cell-tracer CM-Dil (Molecular Probes). MSC were collected and suspended in 5 mL PBS containing CM-Dil (10^7 cells/10 μg) prior to be incubated at 37° C. for 5 minutes followed by 15 minutes at 4° C., in the dark. Labeled MSCs were washed 2 times in PBS, resuspended in PBS and maintained at 4° C. prior to be injected in the myocardium.
Isolation of total RNA for each sample was performed using the RNeasy Mini Kit (Qiagen, Courtaboeuf). The quantity and quality of the RNA extracted were defined by using a NanoDrop ND-1000 spectrophotometer (NanoDrop ND, Thermo Fisher Scientific). Then, using the SensiFAST cDNA synthesis kit (Bioline), cDNA was synthesized by reverse transcribing 500 ng RNA into cDNA. Using the SensiFAST™ SYBR (Bioline) and a LightCycler® 480 Detection system Quantitative following manufacturer's recommendations, PCR were performed. Primers specific for angpl4, pdk4, bcl2, hgf, pdgf, nrf2 were designed using the Primer3 software. Data were normalized to the housekeeping gene ribosomal protein S9 (RPS9) and the values were expressed as relative mRNA level of specific gene expression as calculated using the 2^−ΔCt method.

[1] = test system: LV protein extracts from murine IR hearts; test: Western blot of LV protein extracts from ex vivo IR hearts (cleaved caspase 3, pAKT/AKT, pERK1/2/ERK1/2); parameters: species or system mouse (C57BL/6J); settings: for Cleaved caspase 3 (caspase 3 activation): IR hearts reperfused with MSC 2500 cells/mL, pre-treated 24 h or not (GW0742 1 μM)
Experimental: FIG. 9: (A) C57B16 mouse hearts were mounted on a Langendorff system. The ex vivo protocol comprises a 15 minute-period of stabilization, followed by 30 minutes of global ischemia achieved by stopping the flow through the aorta (no-flow). Reperfusion was achieved by restoring the Tyrode perfusion during 60 minutes (IR group). […] At the end of the protocol, hearts were collected, protein extracted for further analysis. (B, C, D) Western blot analysis was performed from LV protein extracts from IR non-treated or MSC-treated murine IR hearts (ex vivo) with or without a pharmacological pre-treatment. Scatter dot blots and mean±SD were plotted for Cleaved-caspase 3 (W=0.0322 for IR, n=10 vs MSC +GW0742, n=10) and for pAKT/AKT (p*=0.0385 for IR, n=8 vs MSC+GW0742, n=8). Data were compared using non parametric Kruskal-Wallis test (Dunn's post hoc test).
On the Langendorff system, the heart was subjected to ischemia-reperfusion (IR) protocol comprising, after a 15 min-stabilization period of Tyrode perfusion, a 30 min-period of no-flow to induce global ischemia). Reperfusion was achieved by restoring the perfusion during 60 min with the Tyrode solution alone (IR control) or with MSC cell in Tyrode solution (MSC) administrated during reperfusion. Ischemic postconditioning was induced at the end of global ischemia by the application of a conditioning stimulus comprising 3 cycles of 1 min-reperfusion/1 min-ischemia, followed by 54 min of reperfusion. For the ex vivo evaluation of MSC-based cell therapy, 80 to 150 mL of MSC (mean value 120 mL) cells prepared in the Tyrode solution at various concentrations (2500, 5000 et 20000 cells/mL) were perfused retrogradely via the aorta and the coronary vessels in isolated hearts during the 60 min-reperfusion phase.
Tissue samples (left ventricle) were rapidly frozen in liquid nitrogen after the end of ex vivo IR protocols. […] Protein concentrations were determined with the bicinchoninic acid (BCA) protein assay kit (Pierce). […]

[2] = MSC pretreated 24 h with 0.1 μM
[3] = pretreatment of cultured MSC (data not shown)

SMILES	hgf transcripts (MSC; [2])	pdgf transcripts (MSC; [2])	vegf-α transcripts (MSC; [2])	hgf transcripts (MSC; MSC pretreated 24 h with 1 μM)	pdgf transcripts (MSC; MSC pretreated 24 h with 1 μM)	vegf-α transcripts (MSC; MSC pretreated 24 h with 1 μM)	bcl2 gene expression level (MSC; MSC pretreated 24 h with 1 μM)	Cleaved caspase 3 (caspase 3 activation) [1]	bcl2 gene expression level (MSC; [2])	angpl4 target gene expression level (MSC; [3])	pdk4 target gene expression level (MSC; [3])	Phosphorylation ratio pAkt/Akt ([1]; IR hearts, MSC pre-treated with 1 μM prior to administration during reperfusion, vs non-treated IR)
COC(=O)c1sccc1S(=O)(=O)Nc1ccc(Nc2ccccc2)cc1OC [GSK0660]	A similar tendency was observed	A similar tendency was observed	significantly decreased	A similar tendency was observed	A similar tendency was observed	significantly decreased	significantly reduced bcl2 gene expression level	restored full activation of caspase 3				
Cc1cc(SCc2sc(-c3ccc(C(F)(F)F)c(F)c3)nc2C)ccc1OCC(=O)O [GW0742]	did not modify		did not modify	did not modify	significantly increased the expression of pdgf	did not modify		inhibition of caspase 3 cleavage was further increased	significant increase in bcl2 gene expression level	increased expression levels	increased expression levels	significantly increased phosphorylation ratio pAkt/Akt
